Source: PubChem BioAssay AID179 (DTP/NCI, 2004)
The source made the active and inactive calls.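 The calls were made as follows: active = compounds giving half or more protection of infected cells from virus-caused growth loss, again on retest; inactive = the rest.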

Tested on: CEM cells HIV-1 protection, formazan growth assay
Test: NCI AIDS Antiviral Assay
Conditions: for IC50: measured here: growth of uninfected CEM cells
Summary of the method: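 Steps: treat uninfected and HIV-1-infected human CEM cells at five drug levels; quantify growth by soluble formazan; retest any compound reaching 50% protection; classify actives from the retest.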

SMILES | EC50 | IC50 | outcome
C=C1CN(S(=O)(=O)c2ccc(C)cc2)CCCN(Cc2ccccn2)CCCN(S(=O)(=O)c2ccc(C)cc2)C1 | > 200 µM | > 200 µM | –
NC(CSSCC(N)C(=O)O)C(=O)O (stereo not given) | > 200 µM | > 200 µM | –
NC(=O)C(=CN1CC(=O)NC1=S)C(N)=O | > 200 µM | > 200 µM | –
C=C1C2CCC3(CCC4C5(C)CCCC4(CN(CC)C5)C3C2)C1O (stereo not given) | – | – | inactive
COc1cc(/C=C/C(=N\NC(=O)c2ccccc2)c2sc(Nc3ccc(Cl)c(Cl)c3)nc2C)ccc1O | > 46.8 µM | 38.9 µM | –
OC1CCC(C#CC#CC2CCC(O)CC2)CC1 (stereo not given) | > 100 µM | > 100 µM | –
Cc1cc2oc(-c3ccccc3)c(C)c(=O)c2c2c1OC(C)(C)S2 | > 39.8 µM | > 39.8 µM | –
O=C1CCC2(C=Nc3ccccc32)C2Cc3ccccc3N12 (stereo not given) | > 13.2 µM | > 13.2 µM | –
C=C1c2c(C)coc2C(=O)c2c(O)cc(OC)c(C)c21 | – | – | inactive
COc1ccc(Sc2ccccc2[N+](=O)[O-])cc1 | – | – | inactive
CNC(=O)CCCNC(=O)CCCC(=O)N(C)C | > 200 µM | > 200 µM | –
CC(=O)OC1CC2(c3ccccc3)C(=O)c3ccccc3N2O1 (stereo not given) | > 115 µM | > 115 µM | –
Cc1ccc(N(C)S(=O)(=O)c2ccccc2[N+](=O)[O-])cc1 | 10.7 µM | 36.3 µM | –
Cn1nc(-c2ccc3c(c2)OCO3)[n+]([O-])c2c(=O)n(C)c(=O)nc1-2 | > 200 µM | 0.38 µM | –
COC(OC)/C(C)=N/NC1=Nc2ccc(Cl)cc2C(c2ccccc2Cl)=NC1 | > 12.3 µM | > 12.3 µM | –
NC(CSC[C@H](N)C(=O)O)C(=O)O (stereo not given in full) | – | – | inactive
Cc1cc(=O)oc2c3c(ccc12)OC(c1ccc(Br)cc1)CC3=O (stereo not given) | > 200 µM | 46.8 µM | –
O=C(O)CCCCCCCCCC(=O)O | > 794 µM | > 794 µM | –
CC(C)=CCOc1cc(O)c2c(O)c3c(cc2c1)CC(C)(C)CC3=O | > 100 µM | 7.08 µM | –
COc1ccc(OC)c2cc(Cc3ccc(N(C)C)cc3)c(=O)c(Cc3ccc(N(C)C)cc3)cc12 | > 200 µM | 43.7 µM | –
COC(=O)C12C3C=CC(O3)C1C1C=CC2O1 (stereo not given) | – | – | inactive
COc1ccc(NS(=O)C2CCCCC2)cc1 (stereo not given) | > 200 µM | > 200 µM | –
Cn1c(=O)c2c(nc3n2CC(=O)N3CCCCl)n(C)c1=O | 85.1 µM | > 200 µM | –

SMILES | EC50 | IC50 | outcome
N#Cc1cc2c(N)ncnc2nc1N1CCCC1 | > 200 µM | 191 µM | –
COc1ccc2c3c([nH]c2c1[N+](=O)[O-])C(C)N(C)CC3 (stereo not given) | – | – | inactive
COc1cc2c(cc1OC)C1(c3ccccc3)ON=C(c3ccccc3)N1CS2 (stereo not given) | > 9.33 µM | > 9.33 µM | –
C[C@]12CC[C@H](O)CC1=CC[C@@H]1C2CC[C@]2(C)Nc3[nH]ncc3CC12 (stereo not given in full) | – | – | inactive
Brc1ccccc1CCc1ncc[nH]1 | > 575 µM | 234 µM | –
c1ccc(Cn2c(-c3ccc(-c4ccccc4)cc3)cc3ccccc32)cc1 | > 100 µM | > 100 µM | –
O=C1C2C=CC(n3[nH]c(=O)n(Cc4ccccc4)c3=O)CC2C(=O)N1c1ccc(Br)cc1 (stereo not given) | > 501 µM | 135 µM | –
CCOC(OC1=C(C#N)CCCC1)C(C)[Se]c1ccccc1 (stereo not given) | > 20 µM | > 20 µM | –
C/C=C1\CN(C)C2Cc3c([nH]c4ccccc34)C(c3cc4c5c([nH]c4cc3OC)C3(C(=O)OC)CC4CC(CC)C3N(CC5)C4)CC1C2C(=O)OC (stereo not given) | – | – | inactive
O=C(NCCN1CCCC1)c1cn2c(ccc3sc4ccccc4c(=O)c32)n1 | > 200 µM | 1.26 µM | –
OCC12C3C4C5C3C1C5C42 (stereo not given) | > 200 µM | > 200 µM | –
Nc1c(S(=O)(=O)c2ccccc2)c2nc3ccccc3nc2n2c1nc1ccccc12 | > 8.91 µM | > 8.91 µM | –
CN(C)P(=O)(N(C)C)N(C)C | > 200 µM | > 200 µM | –
O=C(NCCc1c(-c2ccccc2)[nH]c2ccccc12)C1CCCCC1 | > 200 µM | 15.8 µM | –
COC1OC(Cn2cc([N+](=O)[O-])nc2C)C(O)C(O)C1O (stereo not given) | > 200 µM | > 200 µM | –
N#CC1=C(N2CCCC2)NC(=O)CC1=O | > 200 µM | > 200 µM | –
CC(C)(C)C1=C(Br)C(O)(C(C)(C)C)OP1(=O)c1ccccc1 (stereo not given) | > 200 µM | 151 µM | –
OCC1CC(F)C(n2cnc3c(NO)ncnc32)O1 (stereo not given) | > 151 µM | > 151 µM | –
COC(=O)CC1(O)C(C=C(C)C)C(C(=O)OC)C(=O)C(C(=O)OC)C1C(=O)OC (stereo not given) | > 200 µM | > 200 µM | –
NC(=O)C1CC2(C1)CC(C(N)=O)C2 (stereo not given) | > 245 µM | > 245 µM | –
O=C(Nc1ccc(C2=NCCN2)cc1)c1cncc(C(=O)Nc2ccc(C3=NCCN3)cc2)c1 | 9.77 µM | 132 µM | –
O=S(=O)(/C=C/CS(=O)(=O)c1ccccc1)c1ccccc1 | – | – | inactive
Cc1ccc2ccc3c(=O)cc(C)[nH]c3c2n1 | 9.77 µM | 32.4 µM | –

SMILES | EC50 | IC50 | outcome
CCCCCC/C=[N+](/[O-])CC1OC(n2ccc(=O)[nH]c2=O)C(O[Si](C)(C)C(C)(C)C)C1O[Si](C)(C)C(C)(C)C (stereo not given) | > 200 µM | 6.76 µM | –
CC#CCCCC1(C)CCNC1=S (stereo not given) | > 200 µM | > 200 µM | –
CCOC(OCC)[C@@H]1C[C@@H]2N(O[C@H](OC3CCCC3(c3ccccc3)c3ccccc3)[C@H](OC(C)=O)[C@@]2(CC)Cc2ccc(OC)c(OC)c2)O1 (stereo not given in full) | > 200 µM | > 200 µM | –
Cc1ccc(CC(Cc2ccccc2C)C(=O)O)c(C(=O)O)c1 (stereo not given) | > 200 µM | > 200 µM | –
C=C(C)[C@@H]1CC[C@]2(C(=O)O)CC[C@]3(C)[C@H](CC[C@@H]4[C@@]5(C)CC[C@H](O)C(C)(C)[C@@H]5CC[C@]43C)[C@@H]12 | > 200 µM | 20.9 µM | –
CCCCNC(=O)OCCN=c1c2ccccc2ccc2ccccc12 | > 200 µM | > 200 µM | –
CN(C)c1ncnc2c1Cc1ccccc1C(=O)N2C | 60.3 µM | 407 µM | –
CC12CCC(C/C1=N\NC(N)=O)C2(C)C (stereo not given) | > 200 µM | > 200 µM | –
CC(C)C(F)(C(N)=O)C(=O)O (stereo not given) | > 200 µM | > 200 µM | –
CCOC1=C(c2ccccc2)Oc2cccnc2-n2cccc21 | > 200 µM | 138 µM | –
COc1ccc(-n2sc3ncc(-c4ccccc4)cc3c2=O)cc1 | 7.08 µM | 35.5 µM | –
COc1cc([C@H]2c3cc(O)c(OC)cc3CC3C(=O)OCC32)ccc1O (stereo not given in full) | > 363 µM | > 363 µM | –
N=C(/C=C/c1ccc(-c2cn3cc(/C=C/C(=N)N4CCCC4)ccc3n2)cc1)N1CCCC1 | 25.1 µM | 64.6 µM | –
CC12CCC3c4ccc(OS(=O)(=O)O)cc4CCC3C1CC(O)C2O (stereo not given) | – | – | inactive
COc1ccc(N=C2[Se]C(=NC(=O)c3ccccc3)N(c3ccc(OC)cc3)C2=Nc2ccc(OC)cc2)cc1 | > 200 µM | 102 µM | –
N#Cc1ccc(Nc2nc3nc[nH]c3c(=O)[nH]2)cc1 | > 200 µM | > 200 µM | –
CSc1cc(Cl)c(C(=O)Nc2ccccc2)cc1S(=O)(=O)n1cc[nH]c1=O | > 200 µM | > 200 µM | –
COc1cccc(/C=N/[N-]C(N)=O)c1[O-].[Cu+2].c1ccncc1 | > 5.75 µM | > 5.75 µM | –
CC(=O)OC12CCCC(=O)C1C1CC/C=C\CCC12 (stereo not given) | > 170 µM | 105 µM | –
c1ccc(Oc2ncnc3ccccc23)cc1 | > 200 µM | 63.1 µM | –
CCOC(=O)C1CC(C(=O)OCC)(c2ccccc2)CCC1=O (stereo not given) | > 58.9 µM | 47.9 µM | –
Cc1ccc(NC(=O)C(=O)C(C#N)c2ccccc2C)cc1C (stereo not given) | > 23.4 µM | > 23.4 µM | –
Cc1nc2ccccc2c(=O)n1/N=C/c1ccc(N(C)C)cc1 | > 200 µM | > 200 µM | –

SMILES | EC50 | IC50 | outcome
COc1ccc(-c2cc(=O)c3c(C)cc(O)cc3o2)cc1 | 81.3 µM | 115 µM | –
O=C1C2C(C(=O)N1c1ccccc1)C1([N+](=O)[O-])C=C3c4ccccc4N(C(=O)c4ccccc4)C32C2C(=O)N(c3ccccc3)C(=O)C21 (stereo not given) | – | – | inactive
CCO/C=N/C1=C(C#N)C(c2ccc(Cl)cc2)c2c(-c3ccccc3)nn(-c3ccccc3)c2O1 (stereo not given) | > 20 µM | 17 µM | –
CC(=O)OC1COC(OC2CC3(C)C4CC=C5C(C=C(O)CC5(C)C)[C@]4(C)CC[C@]3(C)C2C(C)(O)C(=O)/C=C/C(C)(C)O)C(OC(C)=O)C1O (stereo not given in full) | – | – | inactive
S=c1nc[nH]c2nc[nH]c12 | > 234 µM | 1.51 µM | –
CC(C)(C)C(=O)OCC1CCC[N+]2(C)CCCCC12 (stereo not given) | > 200 µM | > 200 µM | –
NC(=O)n1cnc(N)n1 | > 200 µM | > 200 µM | –
O=C(NS(=O)(=O)Nc1ccccc1)OCc1ccccc1 | > 200 µM | > 200 µM | –
O=c1/c(=C/c2ccccc2[N+](=O)[O-])sc2nc3ccccc3n12 | > 3.24 µM | > 3.24 µM | –
COc1ccc(/C(=N\NC(=O)C(N)=O)C(c2ccc(OC)cc2)C2(O)C(=O)Nc3c(Cl)cccc32)cc1 (stereo not given) | > 18.2 µM | > 18.2 µM | –
CCOC1OC(CO[Si](C)(C)C(C)(C)C)C(O)CC1n1ccc(=O)[nH]c1=O (stereo not given) | > 200 µM | 31.6 µM | –
CCCCCCCCCCCCCCCCCCNC(=S)/N=C/c1c(O)cc(C)oc1=O | > 200 µM | 32.4 µM | –
COc1ccc(N2C(=O)C3c4[nH]c5ccccc5c4C4CCCCCCC4C3C2=O)cc1 (stereo not given) | > 8.71 µM | > 8.71 µM | –
COC(=O)[n+]1cc2c3cccc[n+]3c(N(C)C)n2c2ccccc21 | > 200 µM | 16.6 µM | –
Cc1cc([C@H](C#N)c2nc3ccccc3s2)nc(Cl)n1 | > 15.1 µM | 1.05 µM | –
N#C/C(=C\c1ccccc1F)C(=O)c1ccccc1 | > 75.9 µM | > 75.9 µM | –
COc1cc([C@H]2Oc3c(OC)cc(/C=C/C(=O)O)cc3[C@@H]2C(=O)O)ccc1O | 120 µM | > 200 µM | –
CC(=O)OCC1OC(n2ccc(=O)[nH]c2=O)C(OC(C)=O)C(OC(C)=O)C1OC(C)=O (stereo not given) | > 562 µM | > 562 µM | –
Cc1cc(C)nc(NS(=O)(=O)c2ccc(NC(=O)c3cccnc3Nc3cccc(Cl)c3)cc2)n1 | – | – | inactive
O=C(O)C(=O)Cc1ccc(O)cc1 | > 200 µM | > 200 µM | –
